According to patent US8906888B2, “Low-calcemic 16,23-diene 25-oxime analogs of 1α,25-dihydroxy vitamin D3” (Cytochroma Inc., priority 2005, dated 2014):

What was measured:
CYP24 = target: T1, CYP24 (Homo sapiens, UniProt Q07973); test: CYP24 enzyme assay (V79-CYP24 cells, 3H-1α,25(OH)2D3 substrate); assay type: cell-based; settings: substrate 20 nM, 2 hours, read-out: IC50 in the inhibition of CYP24
T1 construct: expressed in transfected cells; host or cells: V79-CYP24 cells (V79 = Chinese hamster lung fibroblasts, own knowledge; kept under hygromycin selection)
T1 sequence (Q07973 36-514): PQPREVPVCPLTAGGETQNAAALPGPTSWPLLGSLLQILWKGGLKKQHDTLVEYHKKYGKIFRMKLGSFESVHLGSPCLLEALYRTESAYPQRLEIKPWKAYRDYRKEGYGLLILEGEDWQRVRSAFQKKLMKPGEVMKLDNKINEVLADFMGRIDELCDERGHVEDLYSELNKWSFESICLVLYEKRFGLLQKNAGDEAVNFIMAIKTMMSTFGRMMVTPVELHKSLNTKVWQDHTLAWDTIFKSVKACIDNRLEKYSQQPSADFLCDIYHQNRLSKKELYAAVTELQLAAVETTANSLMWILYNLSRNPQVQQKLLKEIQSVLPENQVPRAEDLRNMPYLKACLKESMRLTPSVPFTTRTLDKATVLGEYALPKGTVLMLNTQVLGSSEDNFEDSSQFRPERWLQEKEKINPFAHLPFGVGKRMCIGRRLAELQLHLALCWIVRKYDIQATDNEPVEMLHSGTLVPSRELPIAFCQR
Protocol: (i) Material and Reagents:
Substrates (1 mM) reconstituted in isopropanol
1. Preparation of Cell Suspension • On the day of the assay, washed the monolayer of V79-CYP24 cells once with 1×PBS buffer and then trypsinized for 5 min at room temperature (approx. 22° C.). Added 1×PBS. Collected cells into tube, centrifuged cells (500×g, 5 min) and resuspended in DMEM+1% BSA media. Counted cells and adjusted density to 2 million/1 mL.
2. Cell Plating • Added 80 μl of cell suspension to appropriately labeled wells of a 96-well plate. Incubated plate for 45 minutes at 37° C. in a humidified atmosphere containing 5% CO2.
3. Compound Addition • Added 10 μl of inhibitor (10^−6 to 10^−10 M) and then after 35-40 min added 10 μl of substrate [^3H-1β]-1α,25(OH)2D3 (20 nM) for 2 hours at 37° C. in a humidified atmosphere containing 5% CO2. Both inhibitor and substrate were prepared in DMEM with 1% BSA media.
4. Lipid Extraction and Counting • Added 250 μl of methanol to stop the reaction and mixed. Added […] of dichloromethane, covered block and vortexed. Added […] of dichloromethane again, added […] of saturated KCl and vortexed. Centrifuged at 3000 rpm for 30 min. Triplicate 100 μl aliquots of aqueous fraction were mixed with 200 μl of scintillation fluid and the radioactivity was measured using a scintillation counter. All values were normalized for background. (iii) Results: • 1. […] (iv) Reference: 1. PCT Patent Application Serial No. PCT/CA03/00620

OVCAR-3 cells = test: [3H]-Thymidine proliferation assay with OVCAR-3 cells; assay type: cell-based; settings: ovarian cancer cells, 6 days, 3H-thymidine incorporation
Protocol: 1. Preparation of Suspension • When OVCAR-3 cells were ˜50% confluent, aspirated media. Washed cells with 1×PBS. Trypsinized with trypsin-EDTA, collected cells from the tissue culture flask, centrifuged (200×g, 5 min) and resuspended in media.
2. Cell Plating. • Counted the cells and adjusted the cell density to 11.4×10^3 to provide 2000 cells in 175 μl (for 1 well). Distributed cell suspension into a 96 well plates at 175 μl (2000 cells) per well. Incubated plate for 24 h at 37° C. in a humidified atmosphere plus 5% CO2. • Substrate addition. • Added 25 μl of compound (final concentration 10^−7 M, 5×10^−8 M 10^−8 M, 5×10^−9 M, 10^−9 M, 10^−10M or 0 M) into each designated well. Incubated plates for 6 days without changing media and drugs at 37° C. in a humidified atmosphere plus 5% CO2.
3. [^3H]-Thymidine incorporation • Added ^3H-thymidine at 0.02 μCi per well and incubated at 37° C. in a humidified atmosphere plus 5% CO2 for 6 h.
4. Plate Harvesting. • Aspirated all media and washed cells with 1×PBS. Trypsinized cells for 30 min at 37° C. in a humidified atmosphere plus 5% CO2. Harvested cells onto a 96 well filter plate (Millipore) using a Tomtec Cell Harvestor, according to manufacturers instructions.
5. Scintillation Counting. • Added 25 μl of scintillation fluid per well. Counted the plate using a scintillation counter. Results: Compounds (20R)-I(a), (20R)-I(c) and (20R)-I(e) all inhibited the proliferation of OVCAR-3 cells.

CYP24 mRNA = test: CYP24 transcriptional activation assay in U-937 cells (real time PCR); assay type: cell-based, human; settings: six hours, normalized to GAPDH, 100 nM calcitriol set to 100%
Protocol: 1α,25(OH)2D3 1 mM reconstituted in isopropanol
• Sodium pyruvate • Non-essential amino acids • HEPES • 10% fetal bovine serum Phorbol 12-myristate 13-acetate (PMA) 24-well plate Isopropanol TRIzol® reagent (Invitrogen) Chloroform Ethanol Diethylpyrocarbonate treated dH2O Thermoscript™ RT-PCR System kit (Invitrogen) Human CYP24 TaqMan® Probe (Applied Biosystems Inc) Human GAPDH TaqMan® Probe (Applied Biosystems Inc) TaqMan® Universal Master Mix Probe (Applied Biosystems Inc) (ii) Procedure:
1. Cell Culture, Stimulation and Plating • Cultured U-937 cells in 4+RPMI media to a level of ≈80% confluence. Pelleted cells by centrifugation and resuspended to a concentration of 5×10^5 cells per 1 ml media. Treated U-937 cells with a final concentration of PMA of 20 ng/ml. To each well, of a 24-well plate, added 1 ml of cell suspension and incubated overnight at 37° C., in a humidified atmosphere containing 5% CO2, for adherence of cells to the wells.
2. Cell Treatment and TRIzol® Addition • Changed the media with 1 ml of fresh 4+RPMI media. Added 1 μl of the working solutions of 1, 10, and 100 μM of the compound being tested, in triplicate. Added 1 μl of isopropanol as a control, in triplicate. Incubated the cells for six hours at 37° C., in a humidified atmosphere containing 5% CO2, aspirated off the media and then added 1 ml of TRIzol® reagent. Transferred TRIzol® with cell lysate to a 1.7 ml microcentrifuge tube and stored at −80° C.
3. […] Determined the concentration of RNA using a spectrophotometer to measure the optical density of each sample, at a wavelength of 260 nm. […]
4. CYP24/GAPDH Real Time PCR • Determined the amount of CYP24 and GAPDH mRNA present in each sample using commercial TaqMan® probes, from Applied Biosystems Inc. (Foster City, Calif.). Detected both genes in the same 20 μl reaction, using an ABI PRISM 96-well optical reaction plate and cycle 50 times using an ABI Prism 7000 Sequence Detection System® (ABI). […]

[1] = Standard hypercalcemia assay (urine calcium, oral daily dosing for one week); assay type: in vivo; settings: rat

Row | IC50 (CYP24) | Levels of calcium in the urine [1] | Compound | Inhibition of OVCAR-3 cell proliferation (OVCAR-3 cells) | CYP24 mRNA induction, activity as % of that for calcitriol at 100 nM (CYP24 mRNA)
1 | 85.9 nM | – | C=C1/C(=C\C=C2/CCC[C@]3(C)C([C@H](C)C/C=C/C(=N\OC)C4CC4)=CC[C@@H]23)C[C@@H](O)C[C@@H]1O [(20R)-I(c)] | inhibited | 30%
2 | 488 nM | – | C=C1/C(=C\C=C2/CCC[C@]3(C)C([C@H](C)C/C=C/C(=N\OC)C(F)(F)F)=CC[C@@H]23)C[C@@H](O)C[C@@H]1O [(20R)-I(a)] | inhibited | 54%
3 | – | significant increase | C=C1/C(=C\C=C2/CCC[C@]3(C)[C@@H]([C@H](C)CCCC(C)(C)O)CC[C@@H]23)C[C@@H](O)C[C@@H]1O [calcitriol, 1α,25-Dihydroxy vitamin D3] | – | –
